Test in all cases: NCI-60 cell line screen, 48 h
For test [1], the system named is A549 NSCLC.
For test [2], the system named is HCC-2998 colon.
For test [3], the system named is HCT-15 colon.
Test [4] deals with HL-60(TB) leukemia.
Test [5] has as its system HS 578T breast.
Test [6] deals with OVCAR-3 ovarian.
The test system of test [7] is PC-3 prostate.
For test [8], the system named is SF-268 CNS.
Test [9] concerns SK-MEL-2 melanoma.
Test [10] deals with SK-MEL-5 melanoma.

“And” between values parts separate entries of the source, which are not always exact repeats. Equal values may be shown once.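 96-well plates; 48 h exposure; 5 concentrations. Endpoints by linear interpolation between flanking doses. Not reached: highest tested concentration assigned. Here, GI50 denotes the concentration required for 50% inhibition of growth. TGI: total growth inhibition.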 Where only a bound is given, the exact number is not on record here.

Regarding `COc1cc2c(c(OC)c1OC)-c1c(cc3c(c1OC)OCO3)C1OC2C(C)C1C` (centres undefined) (tested in a mixture with another compound), the TGI in test [1], in [2], in test [3], in test [4], in [5] and in test [6] was over 100 µM each time. Moreover, the TGI in test [7], in [8], in test [9] and in test [10] was over 100 µM throughout.
In the case of `Nc1nc(-c2cccc(Cl)c2)c(-c2ccc3ncccc3n2)s1`, the GI50 in test [1], in test [2], in test [3], in test [4], in test [5] and in [6] was over 25 µM in each case. For the same molecule, the GI50 in test [7] is over 25 µM; in test [8], over 25 µM; in [9] it was over 25 µM; in test [10], over 19.6 µM. Besides, the TGI in test [1], in [2], in test [3], in test [4], in [5] and in test [6] was over 25 µM each time. For the same molecule, the TGI in test [7], in [8], in test [9] and in [10] was over 25 µM throughout.
For the molecule `CC(C)(C)c1cc(NC(=O)Cc2ccc(-c3cnc4cc(-c5cnn(CCN6CCOCC6)c5)ccc4n3)cc2)no1`, the GI50 in test [1] is 0.335 µM and 0.506 µM and 0.108 µM; in test [3], 0.166 µM and 0.342 µM and 0.0517 µM; in test [4], 0.225 µM and 0.546 µM and 0.158 µM; in test [5], 0.132 µM and 0.235 µM and 0.0377 µM; in test [6], 0.482 µM and 0.675 µM and 0.105 µM; in test [7], 0.481 µM and 1.02 µM and 0.135 µM. Moreover, the GI50 in test [8] was 0.413 µM and 0.468 µM and 0.0781 µM; in [9], 0.347 µM and 0.42 µM and 0.0569 µM; in [10], 0.612 µM and 0.674 µM and 0.232 µM. Moreover, the TGI in test [1] is 50 µM and > 100 µM and > 3 µM; in test [2], 50 µM and > 100 µM and > 3 µM; in test [3], 50 µM and > 100 µM and > 3 µM; in test [4] it was 50 µM and > 100 µM and > 3 µM; in test [5], 1.56 µM and 2.88 µM and > 2.8 µM; in test [6], 50 µM and > 100 µM and > 3 µM. The TGI in test [7] is 50 µM and > 100 µM and > 3 µM; in test [8], 50 µM and > 100 µM and > 3 µM; in test [9], 50 µM and > 100 µM and > 2.53 µM; in [10], 50 µM and 11.3 µM and > 0.95 µM.
For the molecule `N#Cc1cccc(NC(=O)c2cc(-c3ccc(F)cc3F)ccc2O)c1`, the GI50 in [1] is 3.09 µM; in [2] it was 2.97 µM; in test [3], 2.74 µM; in [4], 2.17 µM; in test [5], 2.31 µM; in [6] it was 2.17 µM. The GI50 is 2.88 µM in test [7], 3.11 µM in test [8], 1.76 µM in [9] and 0.728 µM in test [10]. Besides, the TGI in test [1] was 28.4 µM; in [2], 10.1 µM; in [3], 11.4 µM; in test [4] it was 5.6 µM; in [5], 8.91 µM; in test [6] it was 11.7 µM. The TGI in [7] was 9.88 µM; in test [8], over 100 µM; in test [9] it was 5.49 µM; in test [10], 2.15 µM.
Turning to `Nc1ncn(C2CC(O)C(CO)O2)c(=O)n1` (centres undefined), the TGI in [1] was over 375 µM; in test [2], over 375 µM; in test [3] it was over 302 µM; in test [4] it was 103 µM; in test [5] it was 23.5 µM; in test [6] it was 162 µM. In addition, the TGI is over 204 µM in [7], over 375 µM in test [8], 232 µM in [9] and 254 µM in [10].
With `COc1ccc(-n2cc(-c3cc(OC)c(OC)c(OC)c3)[nH]c2=O)cc1Cl`, the GI50 in test [1] is over 100 µM; in [2] it was over 100 µM; in [3], over 100 µM; in [4] it was over 100 µM; in test [5], 34.9 µM; in [6] it was over 100 µM. Also, the GI50 in test [7] is over 100 µM; in [8], 40.8 µM; in test [9] it was over 100 µM; in test [10], over 100 µM. Further, the TGI in [1], in test [2], in [3], in [4], in test [5] and in test [6] was over 100 µM in each case. Also, the TGI in test [7], in test [8], in test [9] and in [10] was over 100 µM each time.
`Cc1ccc(C(=O)Nc2ccc(CN3CCN(C)CC3)c(C(F)(F)F)c2)cc1C#Cc1cnc(N)c2ccccc12`: the GI50 is 0.447 µM in [1]; 0.738 µM in test [2]; 0.142 µM in test [3]; 0.491 µM in test [4]; 0.647 µM in test [5]; 0.578 µM in test [6]. Moreover, the GI50 in test [7] was 0.703 µM; in [8] it was 0.403 µM; in [9], 0.367 µM; in [10], 0.835 µM. In addition, the TGI in [1] was found to be 1.26 µM; in test [2] it was 1.56 µM; in [3], 0.849 µM; in test [4] it was 2.41 µM; in test [5] it was 2.07 µM; in test [6], 1.35 µM. Moreover, the TGI was 1.72 µM in [7], 1.26 µM in [8], 1.55 µM in test [9] and 1.62 µM in test [10].

(Values after PubChem BioAssay (NCI).)
